Laboratory results reported in patent publication US10294234B2, “HIV inhibitor compounds” (priority 2017, dated 2019).

Columns and labels:
[1] = test system: HIV-1 (IIIB) in MT-4 cells; assay: MT-4 HIV assay; type: cell-based; conditions: Human immunodeficiency virus 1, MT4, 120 h; HIV-1 (IIIB), MT-4 cells, 5 days, Cell Titer Glo; read-out: EC50
In short: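 Antiviral activity was read by Cell Titer Glo after a 5-day, 37 °C culture of MT-4 cells pre-infected with a 1:250 dilution of HIV-1 (IIIB). Compounds were tested as threefold dilution series in complete RPMI. Controls were no drug, mock infection and 5 uM AZT.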

[2] = 1 uM compound, NADPH
In short: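 Each compound (1 uM) is incubated in duplicate with 0.5 mg/mL liver microsomal protein from dog, rat or human plus NADPH-regenerating system. Samples taken at 2, 12, 25, 45 and 65 minutes are deproteinised and quantified by LC/MS/MS. Half-life gives Clint.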

[3] = 3H Human Predicted Clearance Assay (tritiated analogs); type: in vitro ADME; set-up: unit not given here; conditions: tritiated analogs, human liver microsomes
Method: 3H Human Predicted Clearance Assay:
For certain compounds, tritiated analogs (H^3) were prepared to further determined their human predicted clearance with increased resolution. Those studies were performed as described above using the tritiated analogs. Data from those compounds is found in Table 2 below and reported in FIG. 1 (note ATV and DRV were not tritiated).

[4] = in vivo
[5] = test system: HIV-1 (IIIB) in MT-4 cells; assay: Protein adjusted EC95 (high resolution antiviral assay with equilibrium dialysis plasma protein binding); type: cell-based; conditions: EC95 adjusted for plasma protein binding (10% plasma vs cell culture media)
Method: MT-4 HIV High Resolution Antiviral Assay
Assay protocol is identical to that described for the MT-4 antiviral assay with the following changes: Each drug is run in 2 series of quadruplicates with different starting concentrations for each series and 19 1.5 fold dilutions performed across the plate. […] Data is analyzed and Hill coefficients determined in Graph Pad Prism (San Diego, Calif.). EC95s were determined by the formula EC95=(19)^I/hill coefficient×EC50. HD values were determined for certain compounds and reported in Table 5 below as an illustrative example.
Equilibrium Dialysis Assay
Pooled plasma (from at least 3 males and 3 females) was from Bioreclamation IVT. Sodium EDTA was used as the anticoagulant. 10% plasma was diluted in 0.133M phosphate buffer consisted of 1.5% (w/v) Sodium EDTA.
RPMI cell culture media consisted 10% FBS was provided by biology department, Gilead Sciences, Inc.
Plasma Protein Binding Assay:
Studies were conducted in duplicate or triplicate using a Dianorm Equilibrium Dialyser (Harvard Apparatus, Holliston Mass.) with each cell consisting of a semipermeable membrane (2.4 cm working diameter) separating two 1 mL PTFE half-cells (Weder HG, Schildknecht J, Kesselring P. A new equilibrium dialyzing system. American Laboratory. 1971; 10: 15-21). Prior to the study, the dialysis membrane was soaked for approximately one hour in 0.133 M phosphate buffer, pH 7.4. 10% plasma and cell culture media spiked with 1 μM compound (1 mL) were placed into opposite sides of the assembled dialysis cells and the dialysis cells were then rotated slowly in a 37° C. water bath. After the equilibration period, matrix-containing samples from both sides were drained into pre-weighed polypropylene tubes. Post-dialysis 10% plasma samples were transferred into centrifuge tubes containing 1 mL of blank cell culture media. Post-dialysis cell culture media samples were transferred into centrifuge tubes containing 1 mL of blank 10% plasma. All samples weights were measured and recorded for calculations of volume shift and recovery. […]

[6] = male beagle dogs, IV infusion over 30 minutes, 0.5 or 1.0 mg/kg

COC(=O)N[C@H](C(=O)N[C@@H](Cc1ccc(C#Cc2ccc(N3CC4CCC(C3)N4C3COC3)nc2)cc1)[C@@H](O)CN(Cc1c(F)cc(-c2ccn(C(F)F)n2)cc1F)NC(=O)[C@@H](NC(=O)OC)C(C)(C)C(F)(F)F)C(C)(C)C(F)(F)F [Example 58, Methyl ((5S,8S,9S,14S)-11-(4-(1-(difluoromethyl)-1H-pyrazol-3-yl)-2,6-difluorobenzyl)-16,16,16-trifluoro-9-hydroxy-15,15-dimethyl-8-(4-((6-(8-(oxetan-3-yl)-3,8-diazabicyclo[3.2.1]octan-3-yl)pyridin-3-yl)ethynyl)benzyl)-3,6,13-trioxo-5-(1,1,1-trifluoro-2-methylpropan-2-yl)-2-oxa-4,7,11,12-tetraazahexadecan-14-yl)carbamate]
EC50 [1]: 4.79 nM
Human Pred Cl. ([2]; human liver microsomes 0.5 mg/mL): <0.11 L/H/kg
Rat. Pred. Cl. ([2]; rat liver microsomes 0.5 mg/mL): 0.24 L/H/kg
3H Human Predicted Cl. [3]: 0.05
DOG IV CL [4, 6]: 7.83 mL/min/kg
DOG IV T1/2 [4, 6]: 13.8 h
DOG PO F ([4]; male beagle dogs, oral gavage, PO dose 2 mg/kg): 18%
Vd ([4]; male, beagle, dog, plasma, iv): 6.34 L/kg
Protein Adjusted EC95 [5]: 353 nM
